Here are results for five molecules from paper PMC7217877, “N-AS-triggered SPMs are direct regulators of microglia in a model of Alzheimer’s disease” (Nature Communications, 2020).

Where “and” joins values, the source holds several entries; their conditions need not be identical. Identical values can stand only once.

This experiment relates to neuron. The experiment is described as follows: quantification of 15R-LXA4, RvE1, RvD1 in primary cells (LC-MS/MS). The format is cell-based, C57BL/6 mice. More on the design: unit not given here. The settings on record: replicates. On the procedure:
Lipid mediators metabololipidomics were performed according to previously described procedures with minor modifications[4],[30]. To confirm the biosynthesis of lipid mediators by recombinant COX2 treated with N-AS or aspirin, 10 U of human recombinant COX2 (Cayman, 60122) was incubated in the presence of 500 μM aspirin (Sigma-Aldrich, A5376) or N-AS (Sigma-Aldrich, 01912) at 37 °C for 30 min. The enzyme was filtered with a Microcon column (Millipore) to remove unreacted aspirin or N-AS and was then resuspended in 0.1 M Tris-HCl (pH 8.0). Next, 500 μM phenol (Sigma-Aldrich) and 1 μM hematin-porcine (Sigma-Aldrich) were added immediately before incubation with 100 μM AA, EPA or DHA (Cayman) at 37 °C for 2 h, respectively. The mixtures were incubated with 30 U of human 5-LOX (Cayman, 60402) containing 2 mM CaCl2 (Sigma-Aldrich), 1 mM ATP (Amresco) and 5 μM 13-HpODE (Cayman) as activators. Also, to validate the importance of residue S565 for N-AS-acetylation of COX2 and production of SPMs, 10 U of the COX2 S565A mutant was used in the above-described method. In addition, to confirm SPM generation in neurons and microglia, these cells were treated with Aβ and sonicated in neuronal and glial culture medium. […] To evaluate the relationship of N-AS and SPM production in microglia, microglia were isolated from WT, APP/PS1, and APP/PS1 treated with N-AS mice at 9 months of age. The microglia were sonicated and resuspended in microglial culture medium. The supernatants were incubated with 100 μM AA, EPA, and DHA (Cayman) at 37 °C for 2 h. A 50 μl aliquot of the mixture from each cell lysate was added to a 250 μl aliquot of 1 ng ml^−1 of 15S-LXA4-d5 (internal standard, Cayman) methanol solution. After vortexing for 10 min and centrifuging at 15,974×g for 5 min, the supernatant was subjected to the analysis of the lipid mediators using an Agilent 6470 Triple Quad LC-MS/MS system (Agilent) coupled to an Agilent 1290 HPLC system. Chromatographic separation was achieved using a Synergi Polar RP (4 μm, 2.0 mm i.d. × 150 mm, Phenomenex). Analytes were eluted with a mobile phase consisting of water: formic acid (100:0.1 v/v) (phase A) and methanol: formic acid (100:0.1 v/v) (phase B) in gradient elution mode for 23 min a flow rate of 0.2 ml min^−1. The elution gradient was as follows: from 0 to 0.1 min the content of phase A was 37% and the content of phase A was decreased to 10% and maintained for 5.5 min. The content of phase A was increased back to 37% at 6.0 min and maintained for 23 min. Quantification was carried out using MRM in negative ionization mode and collision energy of 10–15 eV. The mass transition from Q1 to Q3 is shown in Supplementary Table 2. In this study, the peak areas for all components were automatically integrated using MassHunter B 06.00.
To confirm the generation and roles of N-AS in neurons, cells from E18 C57BL/6 mice were prepared as previously described. Cortices were dissected and then dissociated followed by incubation in papain (Worthington) at 37 °C for 15 min. Neurons were plated on poly-L-lysine-coated coverslips with neuronal culture medium, serum-free Neurobasal medium (Gibco) containing 2% B27 supplements (Gibco), 1 mM Glutamax supplement (Gibco), and 100 U ml^−1 streptomycin/ 100 U ml^−1 penicillin (Gibco) at 37 °C in a humidified atmosphere of 5% CO2. […] Primary astrocyte cultures were prepared from C57BL/6 mice as described previously. In brief, after removal of the meninges, postnatal day 7 (P7) mouse brain tissues were minced and incubated in a rocking water bath at 37 °C for 30 min in the presence of 0.25% trypsin-EDTA (Sigma-Aldrich). Enzyme-digested dissociated cells were triturated with astrocyte-specific medium (DMEM/F12 containing 10% FBS and 1% penicillin-streptomycin) and centrifuged at 155×g for 8 min. The pellet was resuspended in astrocyte-specific medium and passed through a 40-μm cell strainer. […]

For `CC(=O)SCCNC(=O)CCNC(=O)[C@H](O)C(C)(C)COP(=O)(O)OP(=O)(O)OC[C@H]1O[C@@H](n2cnc3c(N)ncnc32)[C@H](O)[C@@H]1OP(=O)(O)O` [Acetyl-CoA, acetyl-CoA], under “Ab + supplement”, the “15R-LxA4 (Fig 3i)” value was 0.02549 and 0.02793 and 0.0321 and 0.02233 and 0.02865 and 0.02722; the “RvD1 (Fig 3i)” value was 0.01313 and 0.01214 and 0.01403 and 0.01264 and 0.01308 and 0.01333; the “RvE1 (Fig 3i)” value was 0.01432 and 0.01422 and 0.01286 and 0.01427 and 0.01354 and 0.01357.
Take `CCCCCCCCCCCCC/C=C/[C@@H](O)[C@H](CO)NC(C)=O` [N-AS, N-((2S,3R,E)-1,3-Dihydroxyoctadec-4-en-2-yl)acetamide]: under “Ab + supplement”, the “15R-LxA4 (Fig 3i)” value is 3.35 and 3.4991 and 3.7074 and 3.111 and 3.589 and 3.409; the “RvD1 (Fig 3i)” value is 0.555 and 0.7676 and 0.6961 and 0.6613 and 0.7318 and 0.6787; the “RvE1 (Fig 3i)” value is 3.2 and 3.853 and 3.712 and 3.527 and 3.7827 and 3.619.
As to `CCCCCCCCCCCCC/C=C/[C@@H](O)[C@@H](N)CO` [Sph, sphingosine], for the setting “Ab + supplement”, the “15R-LxA4 (Fig 3i)” value was 0.02593 and 0.02461 and 0.02134 and 0.02662 and 0.02525 and 0.02398; the “RvD1 (Fig 3i)” value was 0.01101 and 0.01211 and 0.01321 and 0.01156 and 0.01266 and 0.01239; the “RvE1 (Fig 3i)” value was 0.01121 and 0.01127 and 0.01125 (2×) and 0.01124 and 0.01126.
Take “Ab: Aβ 1–42 (Invitrogen, 03112) used to induce an AD environment in cells”: where the note is “Ab, no supplement”, the “15R-LxA4 (Fig 3i)” value is 0.02346 and 0.02267 and 0.02051 and 0.02367 and 0.02325 and 0.02209; the “RvD1 (Fig 3i)” value was 0.01315 and 0.01104 and 0.01107 and 0.0121 and 0.01106 and 0.01158; the “RvE1 (Fig 3i)” value is 0.0152 and 0.01424 and 0.01723 and 0.01472 and 0.01573 and 0.01598.

B1: Sphk1: purified sphingosine kinase1 enzyme (Cayman, 10348) supplemented to cell lysates (protein, UniProt Q9NYA1 1-384, looked up)
Sphingosine kinase 1: MDPAGGPRGVLPRPCRVLVLLNPRGGKGKALQLFRSHVQPLLAEAEISFTLMLTERRNHARELVRSEELGRWDALVVMSGDGLMHEVVNGLMERPDWETAIQKPLCSLPAGSGNALAASLNHYAGYEQVTNEDLLTNCTLLLCRRLLSPMNLLSLHTASGLRLFSVLSLAWGFIADVDLESEKYRRLGEMRFTLGTFLRLAALRTYRGRLAYLPVGRVGSKTPASPVVVQQGPVDAHLVPLEEPVPSHWTVVPDEDFVLVLALLHSHLGSEMFAAPMGRCAAGVMHLFYVRAGVSRAMLLRLFLAMEKGRHMEYECPYLVYVPVVAFRLEPKDGKGVFAVDGELMVSEAVQGQVHPNYFWMVSGCVEPPPSWKPQQMPPPEEPL
Turning to B1, under “Ab + supplement”, the “15R-LxA4 (Fig 3i)” value was 3.266 and 3.3679 and 3.485 and 3.078 and 3.454 and 3.282; the “RvD1 (Fig 3i)” value is 0.5366 and 0.8616 and 0.7359 and 0.6991 and 0.7987 and 0.7175; the “RvE1 (Fig 3i)” value is 3.815 and 3.7466 and 3.98 and 3.781 and 3.863 and 3.88.
